Test results as given in USRE42748E1, “Oral DTPA for radionuclide chelation” (priority 2006, dated 2011).
Several values for one entry are separate records, joined by “and”; a condition that tells them apart may be missing. Equal entries are not always repeated.

Key:
rat colon = experiment: Ussing chamber mucosal to serosal transport across rat colon; format: in vitro ADME; conditions: 5 mg/ml of DTPA in HEPES Buffer
Procedure: (§1) The primary objective of these in vitro studies was to determine a formulation containing permeation enhancers/other additives that achieved maximum transport of DTPA from mucosal to serosal side of the intestine. The mucosal to serosal absorption of DTPA (Zinc/Calcium) was measured in vitro across harvested rat intestinal segments and colon, in an EasyMount Ussing System (Physiological Instruments Inc., CA, Item #EM-CSYS-8). The Ussing chamber consists of two diffusion chambers, a heating block for temperature control, needle valves for gas flow adjustment and gas lift stirring, and Ag/AgCl voltage and current electrodes for measuring transepithelial voltage and for passing current. Representative sections of the harvested rat small intestinal segments (jejunum, duodenum, and ileum) and the rat colon were mounted on sliders placed between the chambers, and DTPA (Zinc/Calcium) transport across the sections was monitored. Aliquots of sample solution were removed from the ‘serosal’ side at 30 min intervals and analyzed by high performance liquid chromatography (HPLC). The change in mucosal to serosal transport of DTPA (Zinc/Calcium) in the presence of different permeation enhancers was determined.
(§2) Zn-DTPA and Ca-DTPA was dissolved in HEPES buffer (VWR, Brisbane, Calif.), with or without additives, at the predetermined drug concentrations. […]

[1] = system: harvested rat small intestinal segments: Jejunum; experiment: Ussing chamber mucosal to serosal transport across rat jejunum; format: in vitro ADME
Procedure: as §1
Zn-DTPA and Ca-DTPA was dissolved in HEPES buffer (VWR, Brisbane, Calif.), with or without additives, at the predetermined drug concentrations. HEPES buffer was used as the base mucosal and serosal fluid. Before initiating the experiment, 5 ml of HEPES buffer was added to each of the two chambers (mucosal and serosal) and was allowed to equilibrate for 20 min. Next, the mucosal buffer was replaced by the appropriate formulation to be tested and the experiment was initiated. Aliquots (0.5 ml) were collected from the serosal side and were replaced with an equivalent amount of fresh HEPES buffer (maintained at physiological temperature). The aliquotted samples from the serosal side were analyzed by HPLC.
Owing to the expected variation in the in vitro conditions and harvested rat intestinal segments, five replicates were used per experimental condition. In order to compare data obtained from the different experiments, the apparent permeability coefficients (Papp) were calculated according to:
[formula] Where, dQ/dt is the linear appearance rate of mass in receiver compartment, C0 is the initial solute concentration in donor compartment, and A is the surface area. The higher the Papp value, the better the permeation property. The similarity of the Papp values indicates similar behavior for the two DTPA compounds.
We then evaluated transport of Zn-DTPA and Ca-DTPA through jejunum segments with and without Labrasol.
We then tested the transport of 100 mg/ml DTPA in HEPES buffer with and without added enhancers across jejunum segments; results are in Table 3.

[2] = Bioavailability study after liquid dose of radiolabeled DTPA (14C) in male Sprague-Dawley rats (SRI Study B230-06); format: in vivo; conditions: for AUC0→last Mean ± SD / AUC0→last: 16.38 mg-equiv DTPA/Kg
Procedure: The objective of this study was to determine the oral bioavailability of Ca-DTPA using radioactive ^14C-DTPA tracer for detection in male Sprague Dawley rats after oral administration in several different formulations. After oral gavage of Ca-DTPA or DTPA (free acid) in sterile water, the oral bioavailability of DTPA is estimated to be about 7% in these two treatment groups. […] In Group 7, which also was administered DTPA in 20% Labrasol (+Quinidine pretreatment), the mean bioavailability was 10%, but this group had greater interindividual variability than seen in the other treatment groups.

[3] = system: harvested rat small intestinal segments: Duodenum; experiment: Ussing chamber mucosal to serosal transport across rat duodenum; format: in vitro ADME; conditions: 5 mg/ml of DTPA in HEPES Buffer
Procedure: as §1, §2

[4] = system: harvested rat small intestinal segments: Ileum; experiment: Ussing chamber mucosal to serosal transport across rat ileum; format: in vitro ADME; conditions: 5 mg/ml of DTPA in HEPES Buffer
Procedure: as §1, §2

Work on O=C([O-])CN(CCN(CC(=O)[O-])CC(=O)[O-])CCN(CC(=O)[O-])CC(=O)[O-].[Ca+2].[Na+].[Na+].[Na+] [Ca-DTPA, calcium diethylenetriaminepentaacetate] yielded a Papp (rat colon) of 3.22e-06 cm/s, a Papp ([1]; Jejunum, 5 mg/ml of drug in HEPES Buffer) of 3.84e-06 cm/s and a Papp ([1]; jejunum, 5 mg/ml of drug in HEPES Buffer containing 10% Labrasol) of 2.84e-06 cm/s. For the same molecule, the Papp ([1]; jejunum, 5 mg/ml of drug in HEPES Buffer containing 20% Labrasol) was 3.48e-06 cm/s, the Papp ([1]; jejunum, 5 mg/ml of drug in HEPES Buffer containing 40% Labrasol) was 1.351e-05 cm/s and the Papp ([1]; jejunum, 100 mg/ml DTPA in HEPES buffer, 5% Gelucire 44/14 + 5% Labrasol) was 7.27e-06 cm/s. For the same molecule, the Papp ([1]; jejunum, 100 mg/ml DTPA in HEPES buffer, 5% TPGS + 5% Labrasol) was 1.404e-05 cm/s, the Papp ([1]; jejunum, 100 mg/ml DTPA in HEPES buffer, 5% TPGS + 20% Labrasol) was 7.85e-06 cm/s and the Papp ([1]; jejunum, 100 mg/ml DTPA in HEPES buffer, 5% Tween 80 + 5% Capmul PG-8) was 3.61e-06 cm/s. The Papp ([1]; jejunum, 100 mg/ml DTPA in HEPES buffer, 5% Tween 80 + 5% Labrasol) was 1.161e-05 cm/s, the Papp ([1]; jejunum, 100 mg/ml DTPA in HEPES buffer, 5% Tween 80 and 5% Caproyl PGMC) was 2.75e-06 cm/s and the Papp ([1]; jejunum, 100 mg/ml DTPA in HEPES buffer, 5% Tween 80 and 5% Labrafil) was 2.83e-06 cm/s. For the same molecule, the Papp ([1]; jejunum, 100 mg/ml DTPA in HEPES buffer, 10% Gelucire 44/14) was 6.57e-06 cm/s, the Papp ([1]; jejunum, 100 mg/ml DTPA in HEPES buffer, 10% Tween 80) was 5.43e-06 cm/s and the Papp ([1]; jejunum, 100 mg/ml DTPA in HEPES buffer, 20% Bile Salt) was 1.265e-05 cm/s. For the same molecule, the Papp ([1]; jejunum, 100 mg/ml of drug in HEPES Buffer containing 10% Labrasol) was 6.29e-06 cm/s, the Papp ([1]; jejunum, 100 mg/ml of drug in HEPES Buffer containing 20% Labrasol) was 1.176e-05 cm/s and the Papp ([1]; jejunum, 100 mg/ml of drug in HEPES Buffer only) was 4.63e-06 cm/s. The “% Bioavailability” value ([2]; Group 1 IV, saline (reference)) was 100%, the “% Bioavailability Mean ± SD” value ([2]; Group 1 IV, saline (reference)) was 100.00% and the “AUC0→last Mean ± SD” value ([2]; Group 1 IV, saline, last time point 3 hr) was 17.73 ± 0.63 Hr * ( ng/ml). The AUC0→last ([2]; Group 1 IV, saline, last time point 3 hr, individual rats) was 17.3934 Hr * ( ng/ml) and 17.34 Hr * ( ng/ml) and 18.4585 Hr * ( ng/ml), the “AUC0→last Mean ± SD” value ([2]; Group 2 Oral, water, 6 hr) was 1.22 ± 0.05 Hr * ( ng/ml) and the AUC0→last ([2]; Group 2 Oral, water, last time point 6 hr, individual rats) was 1.2411 Hr * ( ng/ml) and 1.1632 Hr * ( ng/ml) and 1.2516 Hr * ( ng/ml). The “% Bioavailability” value ([2]; Group 2 Oral, water, individual rats) was 7.00% and 6.56% and 7.06%, the “% Bioavailability Mean ± SD” value ([2]; Group 4 Oral, 20% Labrasol) was 12.14 ± 2.29% and the “AUC0→last Mean ± SD” value ([2]; Group 4 Oral, 20% Labrasol, 6 hr) was 2.15 ± 0.41 Hr * ( ng/ml). The AUC0→last ([2]; Group 4 Oral, 20% Labrasol, last time point 6 hr, individual rats) was 1.6901 Hr * ( ng/ml) and 2.3145 Hr * ( ng/ml) and 2.4507 Hr * ( ng/ml), the “% Bioavailability” value ([2]; Group 4 Oral, 20% Labrasol, individual rats) was 9.53% and 13.05% and 13.82% and the “% Bioavailability Mean ± SD” value ([2]; Group 5 Oral, 5% Labrasol) was 7.12 ± 1.37%. For the same molecule, the “AUC0→last Mean ± SD” value ([2]; Group 5 Oral, 5% Labrasol, 6 hr) was 1.26 ± 0.24 Hr * ( ng/ml), the AUC0→last ([2]; Group 5 Oral, 5% Labrasol, last time point 6 hr, individual rats) was 1.4714 Hr * ( ng/ml) and 0.9971 Hr * ( ng/ml) and 1.3181 Hr * ( ng/ml) and the “% Bioavailability” value ([2]; Group 5 Oral, 5% Labrasol, individual rats) was 8.30% and 5.62% and 7.43%. For the same molecule, the “% Bioavailability Mean ± SD” value ([2]; Group 6 Oral, 5% TPGS + 5% Labrasol) was 7.909 ± 0.84%, the “AUC0→last Mean ± SD” value ([2]; Group 6 Oral, 5% TPGS + 5% Labrasol, 6 hr) was 1.40 ± 0.15 Hr * ( ng/ml) and the AUC0→last ([2]; Group 6 Oral, 5% TPGS + 5% Labrasol, last time point 6 hr, individual rats) was 1.3506 Hr * ( ng/ml) and 1.284 Hr * ( ng/ml) and 1.5688 Hr * ( ng/ml). For the same molecule, the “% Bioavailability” value ([2]; Group 6 Oral, 5% TPGS + 5% Labrasol, individual rats) was 7.62% and 7.24% and 8.85%, the “AUC0→last Mean ± SD” value ([2]; Group 7 Oral, 0.15 mM Quinidine 20 min before, then 20% Labrasol, 6 hr) was 1.81 ± 1.39 Hr * ( ng/ml) and the AUC0→last ([2]; Group 7 Oral, 0.15 mM Quinidine 20 min before, then 20% Labrasol, last time point 6 hr, individual rats) was 3.3876 Hr * ( ng/ml) and 1.2912 Hr * ( ng/ml) and 0.7655 Hr * ( ng/ml). For the same molecule, the “% Bioavailability Mean ± SD” value ([2]; Group 7 Oral, 0.15 mM Quinidine pretreatment then 20% Labrasol) was 10.23 ± 7.82%, the “% Bioavailability” value ([2]; Group 7 Oral, 0.15 mM Quinidine pretreatment then 20% Labrasol, individual rats) was 19.10% and 7.28% and 4.32% and the Papp [3] was 1.71e-06 cm/s. The Papp [4] was 2.8e-06 cm/s.
